Key:
[1] = test system: A(H1N1)pdm09 viruses; assay type: cell-based, influenza A(H1N1)pdm09 virus
[2] = test system: A(H3N2) viruses; assay type: cell-based, influenza A(H3N2) virus
[3] = test system: influenza A viruses; assay type: cell-based, influenza A virus
[4] = test system: type A viruses; conditions: cited from earlier work
[5] = test system: B/Victoria neuraminidase (NA); assay type: biochemical, influenza B/Victoria lineage virus
[6] = target: A (H1N1)pdm09 neuraminidase (NA); assay type: biochemical, influenza A (H1N1)pdm09 virus

SMILES	effect on baloxavir susceptibility [1]	effect on baloxavir susceptibility [2]	change in EC50 [3]	elevated baloxavir EC50 in cell culture [4]	variably elevated baloxavir EC50 [4]	effect of substitution on inhibition of NA activity [5]	IC50 fold vs NA sequence-matched virus [5]	IC50 Fold [6]
O=C1c2c(O)c(=O)ccn2N([C@@H]2c3ccccc3SCc3c2ccc(F)c3F)[C@@H]2COCCN12 [Baloxavir, baloxavir]	no effect	no effect	• Natural polymorphism • No or little change in EC50 (<3-fold)	• Primary treatment-emergent; associated with diminished virologic response in clinical settings • Rarely as natural polymorphism • Confers elevated baloxavir EC50 in cell culture (11–614-fold)	• Most are natural polymorphisms • Some emerged post baloxavir exposure or introduced for assessment • Confer variably elevated baloxavir EC50 (<3–19 fold)	–	–	–
CCOC(=O)C1=C[C@@H](OC(CC)CC)[C@H](NC(C)=O)[C@@H](N)C1 [Oseltamivir, oseltamivir]	–	–	–	–	–	improving the ability	–	–
CCC(CC)[C@H](NC(C)=O)[C@@H]1[C@H](O)[C@@H](C(=O)O)C[C@H]1N=C(N)N [Peramivir, peramivir]	–	–	–	–	–	improving the ability	14 fold	301 fold
